From ChEMBL document CHEMBL4622979, “Non-rigid Diarylmethyl Analogs of Baloxavir as Cap-Dependent Endonuclease Inhibitors of Influenza Viruses” (J Med Chem, 2020)

Tests used:
[1] = Elimination rate constant in CD1 mouse kidney assessed as (12aR)-12-(Diphenylmethyl)-7-hydroxy-3,4,12,12a-tetrahydro-1H-[1,4]oxazino[3,4-c]pyrido[2,1-f ][1,2,4]triazine-6,8-dione level at 15 mg/kg, po administered as single dose measured up to 24 hrs by LC-MS/MS analysis; assay type: ADME, organism-based; conditions: in vivo
[2] = Cmax in CD1 mouse plasma assessed as (12aR)-12-(Diphenylmethyl)-7-hydroxy-3,4,12,12a-tetrahydro-1H-[1,4]oxazino[3,4-c]pyrido[2,1-f ][1,2,4]triazine-6,8-dione level at 15 mg/kg, po administered as single dose by LC-MS/MS analysis; assay type: ADME, organism-based; set-up: dose 15 mg/kg, route oral; conditions: in vivo
[3] = AUClast in CD1 mouse lung assessed as (12aR)-12-(Diphenylmethyl)-7-hydroxy-3,4,12,12a-tetrahydro-1H-[1,4]oxazino[3,4-c]pyrido[2,1-f ][1,2,4]triazine-6,8-dione level at 15 mg/kg, po administered as single dose by LC-MS/MS analysis; assay type: ADME, organism-based; conditions: in vivo
[4] = MRTlast in CD1 mouse heart assessed as (12aR)-12-(Diphenylmethyl)-7-hydroxy-3,4,12,12a-tetrahydro-1H-[1,4]oxazino[3,4-c]pyrido[2,1-f ][1,2,4]triazine-6,8-dione level at 15 mg/kg, po administered as single dose measured up to 24 hrs by LC-MS/MS analysis; assay type: ADME, organism-based; conditions: in vivo
[5] = Ratio of AUClast in CD1 mouse spleen to plasma assessed as (12aR)-12-(Diphenylmethyl)-7-hydroxy-3,4,12,12a-tetrahydro-1H-[1,4]oxazino[3,4-c]pyrido[2,1-f ][1,2,4]triazine-6,8-dione level at 15 mg/kg, po administered as single dose measured up to 24 hrs by LC-MS/MS analysis; assay type: ADME, organism-based; conditions: other tissue
[6] = Elimination rate constant in CD1 mouse blood assessed as (12aR)-12-(Diphenylmethyl)-7-hydroxy-3,4,12,12a-tetrahydro-1H-[1,4]oxazino[3,4-c]pyrido[2,1-f ][1,2,4]triazine-6,8-dione level at 15 mg/kg, po administered as single dose measured up to 24 hrs by LC-MS/MS analysis; assay type: ADME, organism-based; conditions: in vivo
[7] = AUCinfinity in CD1 mouse lung assessed as (12aR)-12-(Diphenylmethyl)-7-hydroxy-3,4,12,12a-tetrahydro-1H-[1,4]oxazino[3,4-c]pyrido[2,1-f ][1,2,4]triazine-6,8-dione level at 15 mg/kg, po administered as single dose measured up to 24 hrs by LC-MS/MS analysis; assay type: ADME, organism-based; set-up: dose 15 mg/kg, route oral, time infinity; conditions: in vivo
[8] = Elimination rate constant in CD1 mouse heart assessed as (12aR)-12-(Diphenylmethyl)-7-hydroxy-3,4,12,12a-tetrahydro-1H-[1,4]oxazino[3,4-c]pyrido[2,1-f ][1,2,4]triazine-6,8-dione level at 15 mg/kg, po administered as single dose measured up to 24 hrs by LC-MS/MS analysis; assay type: ADME, organism-based; conditions: in vivo
[9] = MRTlast in CD1 mouse brain assessed as (12aR)-12-(Diphenylmethyl)-7-hydroxy-3,4,12,12a-tetrahydro-1H-[1,4]oxazino[3,4-c]pyrido[2,1-f ][1,2,4]triazine-6,8-dione level at 15 mg/kg, po administered as single dose measured up to 24 hrs by LC-MS/MS analysis; assay type: ADME, organism-based; conditions: in vivo
[10] = AUClast in CD1 mouse heart assessed as (12aR)-12-(Diphenylmethyl)-7-hydroxy-3,4,12,12a-tetrahydro-1H-[1,4]oxazino[3,4-c]pyrido[2,1-f ][1,2,4]triazine-6,8-dione level at 15 mg/kg, po administered as single dose measured up to 24 hrs by LC-MS/MS analysis; assay type: ADME, organism-based; conditions: in vivo
[11] = Cmax in CD1 mouse spleen assessed as (12aR)-12-(Diphenylmethyl)-7-hydroxy-3,4,12,12a-tetrahydro-1H-[1,4]oxazino[3,4-c]pyrido[2,1-f ][1,2,4]triazine-6,8-dione level at 15 mg/kg, po administered as single dose measured up to 24 hrs by LC-MS/MS analysis; assay type: ADME, organism-based; set-up: dose 15 mg/kg, route oral; conditions: in vivo
[12] = MRTlast in CD1 mouse kidney assessed as (12aR)-12-(Diphenylmethyl)-7-hydroxy-3,4,12,12a-tetrahydro-1H-[1,4]oxazino[3,4-c]pyrido[2,1-f ][1,2,4]triazine-6,8-dione level at 15 mg/kg, po administered as single dose measured up to 24 hrs by LC-MS/MS analysis; assay type: ADME, organism-based; conditions: in vivo
[13] = Stability in mouse plasma assessed as parent compound remaining at 1 uM measured after 4 hrs by LC-MS/MS analysis; assay type: ADME, cell-free; conditions: read-out: Stability
[14] = Tmax in CD1 mouse plasma assessed as (12aR)-12-(Diphenylmethyl)-7-hydroxy-3,4,12,12a-tetrahydro-1H-[1,4]oxazino[3,4-c]pyrido[2,1-f ][1,2,4]triazine-6,8-dione level at 15 mg/kg, po administered as single dose measured up to 24 hrs by LC-MS/MS analysis; assay type: ADME, organism-based; conditions: in vivo
[15] = Elimination rate constant in CD1 mouse lung assessed as (12aR)-12-(Diphenylmethyl)-7-hydroxy-3,4,12,12a-tetrahydro-1H-[1,4]oxazino[3,4-c]pyrido[2,1-f ][1,2,4]triazine-6,8-dione level at 15 mg/kg, po administered as single dose measured up to 24 hrs by LC-MS/MS analysis; assay type: ADME, organism-based; conditions: in vivo
[16] = MRTlast in CD1 mouse trachea assessed as (12aR)-12-(Diphenylmethyl)-7-hydroxy-3,4,12,12a-tetrahydro-1H-[1,4]oxazino[3,4-c]pyrido[2,1-f ][1,2,4]triazine-6,8-dione level at 15 mg/kg, po administered as single dose measured up to 24 hrs by LC-MS/MS analysis; assay type: ADME, organism-based; conditions: in vivo
[17] = Ratio of AUClast in CD1 mouse trachea to plasma assessed as (12aR)-12-(Diphenylmethyl)-7-hydroxy-3,4,12,12a-tetrahydro-1H-[1,4]oxazino[3,4-c]pyrido[2,1-f ][1,2,4]triazine-6,8-dione level at 15 mg/kg, po administered as single dose measured up to 24 hrs by LC-MS/MS analysis; assay type: ADME, organism-based; conditions: in vivo
[18] = AUClast in CD1 mouse blood assessed as baloxavir acid level at 15 mg/kg, po administered as single dose measured up to 24 hrs by LC-MS/MS analysis; assay type: ADME, organism-based; conditions: in vivo
[19] = AUClast in CD1 mouse muscle assessed as baloxavir acid level at 15 mg/kg, po administered as single dose measured up to 24 hrs by LC-MS/MS analysis; assay type: ADME, organism-based, Muscle tissue; conditions: in vivo
[20] = Cmax in CD1 mouse small intestine assessed as baloxavir acid level at 15 mg/kg, po administered as single dose measured up to 24 hrs by LC-MS/MS analysis; assay type: ADME, organism-based; set-up: dose 15 mg/kg, route oral; conditions: in vivo
[21] = Elimination rate constant in CD1 mouse blood assessed as baloxavir acid level at 15 mg/kg, po administered as single dose measured up to 24 hrs by LC-MS/MS analysis; assay type: ADME, organism-based; conditions: in vivo
[22] = Oral bioavailability in CD1 mouse assessed as baloxavir acid level at 15 mg/kg administered as single dose by LC-MS/MS analysis; assay type: ADME, organism-based; conditions: in vivo
[23] = Half life in CD1 mouse small intestine assessed as baloxavir acid level at 15 mg/kg, po administered as single dose measured up to 24 hrs by LC-MS/MS analysis; assay type: ADME, organism-based; conditions: in vivo

Compound `COC(=O)OCOc1c2n(ccc1=O)N(C(c1ccccc1)c1ccccc1)[C@@H]1COCCN1C2=O` has a Kel [1] of 0.27 h⁻¹, a Cmax [2] of 875 ng/mL and an AUClast [3] of 11923 ng·h/g. For the same compound, the MRTlast [4] was 1.88 h, the “Ratio AUC” value [5] was 1.38 and the Kel [6] was 0.4 h⁻¹. It also gave an AUC [7] of 8547 ng·h/g, a Kel [8] of 0.41 h⁻¹ and an MRTlast [9] of 3.33 h. The AUClast [10] was 11111 ng·h/g, the Cmax [11] was 1119 ng/g and the MRTlast [12] was 2.5 h. It also gave a remaining at 4 h, 1 µM [13] of 0%, a Tmax [14] of 0.5 h and a Kel [15] of 0.44 h⁻¹. The MRTlast [16] was 3.55 h and the “Ratio AUC” value [17] was 3.22.

In the case of `COC(=O)OCOc1c2n(ccc1=O)N([C@@H]1c3ccccc3SCc3c1ccc(F)c3F)[C@@H]1COCCN1C2=O` [BALOXAVIR MARBOXIL], the AUClast [18] is reported as 1381 ng·h/g, the AUClast [19] is reported as 4716 ng·h/g and the Cmax [20] is reported as 53413 ng/g. For the same compound, the Kel [21] was 0.21 h⁻¹, the F [22] was 26.9% and the t1/2 [23] was 3.13 h.
